# From a melting point compilation (Tetko et al.)
row,SMILES,melting point
1,[C-]#[N+]Cc1nc(-c2ccccc2)c(-c2ccccc2)o1,95 to 96 °C
2,O=C1C(COCc2ccccc2)N(Cc2ccccc2)CCN(Cc2ccccc2)C(COCc2ccccc2)C(=O)N(Cc2ccccc2)CCN1Cc1ccccc1 (centres undefined),86 to 87 °C
3,CCCCCCCCN=C(O)c1c(Sc2ccc([N+](=O)[O-])cc2)c(Sc2ccc([N+](=O)[O-])cc2)c(Sc2ccc([N+](=O)[O-])cc2)c(Sc2ccc([N+](=O)[O-])cc2)c1C(=O)O,202 to 204 °C
4,NS(=O)(=O)c1cccc(-c2noc(-c3cnn4ccc(-c5ccc(C(F)(F)F)cc5)nc34)n2)c1,270 °C
5,FC(F)(F)C(F)(F)C(F)(F)C(F)(F)C(F)(F)C(F)(F)CCc1ccc(P(c2ccc(CCC(F)(F)C(F)(F)C(F)(F)C(F)(F)C(F)(F)C(F)(F)F)cc2)c2ccc(CCC(F)(F)C(F)(F)C(F)(F)C(F)(F)C(F)(F)C(F)(F)F)cc2)cc1,49.9 to 52.4 °C
6,CCCCOC(=O)c1ccc(=O)[nH]n1,79 to 80 °C
7,CCC(C=CC(C)C1CCC2C3CC=C4CC(OC(=O)N(CC(O)COC(c5ccccc5)(c5ccccc5)c5ccccc5)C(C)C)CCC4(C)C3CCC12C)C(C)C (centres undefined),75 to 76 °C
8,O=C(Nc1ccc(Cl)cc1)c1ccc(-c2nn[nH]n2)c(NC(=O)c2sc3ccccc3c2Cl)c1,> 250 °C
9,O=C(NCCCN1CCOCC1)c1ccc(-c2ccc(Br)cc2)o1,83 to 100 °C
10,CC(C)CCCC(C)C1CCC2C3CC=C4CC(N(CCCNC(=O)CCNC(=O)CCCCCNc5ccc([N+](=O)[O-])cc5[N+](=O)[O-])S(=O)(=O)c5ccccc5[N+](=O)[O-])CCC4(C)C3CCC12C (centres undefined),86 to 87 °C
11,O=C(Oc1c(I)cc(I)cc1I)C(F)(F)C(F)(F)C(F)(F)C(F)(F)C(F)(F)C(F)(F)F,71 to 73 °C
12,O=C1c2cc(Sc3ccc(Cl)cc3)c(Sc3ccc(Cl)cc3)cc2C(=O)c2c1c(O)c1cc(Sc3ccc(Cl)cc3)c(Sc3ccc(Cl)cc3)cc1c2O,> 300 °C
13,CC(C)(C)c1cc(-c2cc(C(C)(C)C)cc(C(C)(C)C)c2OCP(=O)(c2ccccc2)c2ccccc2)c(OCP(=O)(c2ccccc2)c2ccccc2)c(C(C)(C)C)c1,211 to 212 °C
14,Cc1c(C2=CC(c3c(C)n(Cc4ccc(Cl)cc4)c4ccc([N+](=O)[O-])cc34)(c3c(C)n(Cc4ccc(Cl)cc4)c4ccc([N+](=O)[O-])cc34)OC2=O)c2cc([N+](=O)[O-])ccc2n1Cc1ccc(Cl)cc1,227 to 228 °C
15,CCC1(CC)c2cc(-c3nc4cc5sc(-c6ccc7c(c6)C(CC)(CC)c6cc(N(c8ccccc8)c8ccccc8)ccc6-7)nc5cc4s3)ccc2-c2ccc(N(c3ccccc3)c3ccccc3)cc21,180 to 183 °C
16,Cc1ccc(S(=O)(=O)N2CCN(C)CCN(S(=O)(=O)c3ccc(C)cc3)CCN(S(=O)(=O)c3ccc(C)cc3)CCN(S(=O)(=O)c3ccc(C)cc3)CC2)cc1,170 to 171 °C
17,CCCCCCCCCCCCCC(=O)Nc1ccc(Cl)c(NC2=NN(c3c(Cl)cc(Cl)cc3Cl)C(=O)C2SCCCCOc2cccc(C)c2)c1 (centres undefined),123 to 124 °C
18,CN=S(=O)(Cc1ccc(C(F)(F)F)nc1)c1nc(-c2ccc(OC)cc2)cs1 (centres undefined),158 to 161 °C
19,CC1(C)CC2(CC(C)(C)N1)NC(=O)N(CC(COc1ccc(C(C)(C)c3ccc(OCC(CN4C(=O)NC5(CC(C)(C)NC(C)(C)C5)C4=O)OC(=O)Nc4ccccc4)cc3)cc1)OC(=O)Nc1ccccc1)C2=O (centres undefined),202 to 207 °C
20,O=C(Nc1ccc(Cl)cc1)NC1CCN(S(=O)(=O)c2ccc(C(=O)O)cc2)CC1,266 to 270 °C

# Other lines, results leading:
row,melting point,SMILES
1,225 to 227 °C,CCCCN(Cc1c(C)cc(C(C)(C)C)c(O)c1C)S(=O)(=O)c1ccc(-c2ccc(S(=O)(=O)N(CCCC)Cc3c(C)cc(C(C)(C)C)c(O)c3C)cc2)cc1
2,112 °C,Cc1cc(-n2ccnc2)c2cccc(OCc3c(Cl)ccc(S(=O)(=O)N4CCCC4C(=O)NCC4CCN(C(=O)CCCC(=O)OC(C)(C)C)CC4)c3Cl)c2n1 (centres undefined)
3,105 °C,CCCCCCCCCCCCN(CCCCCCCCCCCC)c1ccc2c(c1)O/C(=C1\Oc3cc(N(CCCCCCCCCCCC)CCCCCCCCCCCC)ccc3C1=O)C2=O
4,130 to 131 °C,FC(F)(F)C(F)(F)C(F)(F)C(F)(F)C(F)(F)C(F)(F)C(F)(F)C(F)(F)CCC1(CCC(F)(F)C(F)(F)C(F)(F)C(F)(F)C(F)(F)C(F)(F)C(F)(F)C(F)(F)F)c2cc(Br)ccc2-c2ccc(Br)cc21
5,91 to 94 °C,O=P(O)(C(F)(F)C(F)(F)C(F)(F)C(F)(F)C(F)(C(F)(F)F)C(F)(F)F)C(F)(F)C(F)(F)C(F)(F)C(F)(F)C(F)(C(F)(F)F)C(F)(F)F
6,156 to 160 °C,CC(C)(C)OC(=O)NCc1ccc(CNC(=O)N2CCN(C(=O)CN3CCC(=O)N(CC(=O)N4CCN(C(=O)NCc5ccc(CNC(=O)OC(C)(C)C)cc5)CC4)CCC3=O)CC2)cc1
7,123 °C,Cc1ccc2cccc(OCc3c(Cl)ccc(S(=O)(=O)N4CCC[C@H]4C(=O)NC4CCN(C(=O)CN(C=NC(=O)OC(C)(C)C)NC(=O)OC(C)(C)C)CC4)c3Cl)c2n1
8,83 to 84 °C,CCCCCCCC/C=C\CCCCCCCCNC(=O)OCCCCCCCCCCCCNC(=O)OC1CCN(C(=O)Oc2ccc(Oc3ccccc3)cc2)CC1
9,82 to 83 °C,FC(F)(F)C(F)(F)C(F)(F)C(F)(F)C(F)(F)C(F)(F)C(F)(F)C(F)(F)CCCCCCC1(CCCCCCC(F)(F)C(F)(F)C(F)(F)C(F)(F)C(F)(F)C(F)(F)C(F)(F)C(F)(F)F)c2cc(Br)ccc2-c2ccc(Br)cc21
10,112 to 114 °C,[N-]=[N+]=C(C(=O)OCCN(CCOC(=O)C(=[N+]=[N-])C(=O)C1CCCCC1)CCN(CCOC(=O)C(=[N+]=[N-])C(=O)C1CCCCC1)CCOC(=O)C(=[N+]=[N-])C(=O)C1CCCCC1)C(=O)C1CCCCC1
11,45 to 48 °C,O=S(=O)(OCC(I)C(F)(F)C(F)(F)C(F)(F)C(F)(F)F)OCC(I)C(F)(F)C(F)(F)C(F)(F)C(F)(F)F (centres undefined)
12,160 to 161 °C,COc1ccc(C(/C=C/c2cc(I)c(OC)c(OC)c2)S(=O)(=O)C(/C=C/c2cc(I)c(OC)c(OC)c2)c2ccc(OC)cc2)cc1 (centres undefined)
13,176 °C,O=C(O)Cc1cc(I)c(Oc2cc(I)c(OCC3CO3)c(I)c2)c(I)c1 (centres undefined)
14,130 to 133 °C,CCC(C)C1NC(=O)C(NC(=O)C(CC(C)C)N(C)C(C)=O)C(C)OC(=O)C(Cc2ccc(OC)cc2)N(C)C(=O)C2CCCN2C(=O)C(CC(C)C)NC(=O)C(C)C(=O)C(C(C)C)OC(=O)CC1OC(C)=O (centres undefined)
15,231 to 233 °C,CCc1nc(OC)c(NC(=O)N2CCN(c3cc(OC)cc(OC)c3)CC2)cc1C(=O)NC(C)C(=O)Nc1cc(CO)cc(Nc2c3ccccc3nc3ccccc23)c1 (centres undefined)
16,320 to 325 °C,Brc1c(Br)c(Br)c(Oc2nc(Oc3c(Br)c(Br)c(Br)c(Br)c3Br)nc(Oc3c(Br)c(Br)c(Br)c(Br)c3Br)n2)c(Br)c1Br
17,188 to 192 °C,CC(C)[C@H](NC(=O)OCc1ccccn1)C(=O)N[C@@H](Cc1ccccc1)[C@H](O)[C@@H](O)[C@H](Cc1ccccc1)NC(=O)[C@@H](NC(=O)N(C)Cc1csc(N)n1)C(C)C
18,102 °C,CC(C)(O)C(=O)c1ccc(C(OC(=O)c2ccc(C(=O)OC(c3ccc(C(=O)C(C)(C)O)cc3)c3ccc(C(=O)C(C)(C)O)cc3)cc2)c2ccc(C(=O)C(C)(C)O)cc2)cc1
19,158 to 159 °C,CCOC(=O)c1cc2cc(OC)cc(NS(=O)(=O)c3cccs3)c2[nH]1
